Assay [1] relates to rhamnolipid production in MRPA0108. Kind of assay: Rhamnolipid production, orcinol method. As to conditions: peptide at 1/4 × MIC, 24 h, absorbance 420 nm, vs control, triplicate. Type of assay: cell-based, Pseudomonas aeruginosa. The procedure:
(§1) The culture supernatant was obtained after centrifugation at 12,000×g for 10 min. (1) LasB elastase activity was measured using elastin-Congo red (ECR) as the substrate, as described by [Pattnaik et al. (2018)]. Briefly, 100 μl of the culture supernatant was added to 900 μl of ECR buffer (100 mM Tris-HCl, 1 mM CaCl2, pH 7.5) containing 10 mg of ECR and then incubated with shaking at 37°C for 18 h. Then, 100 μl of 0.12 M EDTA was added to stop the reaction. The insoluble ECR was removed by centrifugation, and the supernatant absorbance was measured at 495 nm. The optical density (OD) 495 nm/OD 600 nm represents the elastase activity. (2) LasA protease activity was measured as follows ([Pattnaik et al., 2018]): first, the culture supernatant was filtered to remove the bacterial cells, and then 150 μl of sterile-filtered supernatant was added to 2% azocasein (prepared in 50 mM Tris-HCl) and incubated for 4 h at 37°C. Trichloroacetic acid (TCA, 10%) was added to precipitate the undigested substrate. After centrifugation at 10,000 rpm for 10 min, 1 M NaOH was added to the supernatant, and the relative protease activity was measured at OD 440 nm. (3) The pyocyanin assay was based on the absorbance of excreted pyocyanin at 520 nm in an acidic solution ([Kong et al., 2005]). Three milliliters of culture supernatant were mixed with 2 ml of chloroform for 20 min, and then the pyocyanin from the chloroform phase was reextracted using 0.2 M HCl for 15 min to obtain a pink-colored pyocyanin solution. The OD 520 nm was measured to evaluate the change in pyocyanin content. (4) Rhamnolipid detection was carried out as previously described ([Wittgens et al., 2011]). Briefly, 500 μl of culture supernatant was mixed with 500 μl of ethyl acetate and vortexed vigorously for 15 s to extract rhamnolipid. After centrifugation at 10,000×g for 5 min at 4°C, the organic phase containing rhamnolipids was obtained and evaporated at room temperature overnight. The rhamnolipid extract dissolved in ultrapure water was mixed with orcinol reagent (0.19% orcinol in 53% H2SO4) and incubated at 80°C for 30 min. The absorbance was measured at 420 nm. (5) The level of C4-HSL was quantified by GC-MS as previously described ([Guo et al., 2012]).

In assay [2] the test system is LasB elastase of MRPA0108. The assay is described as follows: LasB elastase activity, elastin-Congo red method. It is filed as cell-based, Pseudomonas aeruginosa. The conditions noted are these: peptide at 1/4 × MIC, 24 h, 37°C; ECR substrate, OD495/OD600; vs control; triplicate. The procedure: as §1, with “The rhamnolipid extract dissolved in ultrapure water was mixed with orcinol reagent (0.19% orcinol in 53% H2SO4) and incubated at 80°C for 30 min.” left out

Assay [3] concerns pyocyanin production in MRPA0108. Kind of assay: Pyocyanin production assay. Type of assay: cell-based, Pseudomonas aeruginosa. As to conditions: peptide at 1/4 × MIC, 24 h; OD 520 nm; vs untreated control; triplicate. The procedure: The culture supernatant was obtained after centrifugation at 12,000×g for 10 min. (1) LasB elastase activity was measured using elastin-Congo red (ECR) as the substrate, as described by [Pattnaik et al. (2018)]. Briefly, 100 μl of the culture supernatant was added to 900 μl of ECR buffer (100 mM Tris-HCl, 1 mM CaCl2, pH 7.5) containing 10 mg of ECR and then incubated with shaking at 37°C for 18 h. Then, 100 μl of 0.12 M EDTA was added to stop the reaction. The insoluble ECR was removed by centrifugation, and the supernatant absorbance was measured at 495 nm. The optical density (OD) 495 nm/OD 600 nm represents the elastase activity. (2) LasA protease activity was measured as follows ([Pattnaik et al., 2018]): first, the culture supernatant was filtered to remove the bacterial cells, and then 150 μl of sterile-filtered supernatant was added to 2% azocasein (prepared in 50 mM Tris-HCl) and incubated for 4 h at 37°C. […] After centrifugation at 10,000 rpm for 10 min, 1 M NaOH was added to the supernatant, and the relative protease activity was measured at OD 440 nm. (3) The pyocyanin assay was based on the absorbance of excreted pyocyanin at 520 nm in an acidic solution ([Kong et al., 2005]). […] The OD 520 nm was measured to evaluate the change in pyocyanin content. […] The absorbance was measured at 420 nm. (5) The level of C4-HSL was quantified by GC-MS as previously described ([Guo et al., 2012]).

The subject of assay [4] is exopolysaccharide production in MRPA0108. The assay is described as follows: Exopolysaccharide determination, phenol-H2SO4 method. Type of assay: cell-based, Pseudomonas aeruginosa. As to conditions: phenol-H2SO4, 490 nm. The procedure: (§2) Exopolysaccharides were determined using the phenol-H2SO4 method. Briefly, after incubation, the cultures were centrifuged at 10,000 rpm for 15 min, and the pellets were resuspended in high-salt buffer (10 mM KPO4, 5 mM NaCl, 2.5 mM MgSO4, pH 7.0), followed by recentrifugation at 10,000 rpm for 30 min. The resulting supernatant was mixed with three volumes of chilled ethanol (100%) and incubated overnight at 4°C. The precipitated exopolysaccharide was added to a mixture containing cold phenol and H2SO4, and the absorbance of the solution was measured at 490 nm. Alginate content was determined using the H2SO4-carbazole method. Briefly, after incubation, the precooled cultures were mixed with an H2SO4 solution (4:1) and vortexed in ice water, and then 0.2% carbazole dissolved in ethanol was added. The mixture was revortexed and incubated at 55°C for 30 min, and the OD 530 nm was measured.

Assay [5] relates to MRPA0108 strain. The conditions noted are these: previous study, ref Han et al., 2020; cited from earlier work. The source says: Supplement Table_1.docx, table 1: Table S1 Biological characteristics and antibacterial activities of the Trp-containing antimicrobial peptides (32) | column: MIC(μM)
Assay [6] deals with alginate production in MRPA0108. Kind of assay: Alginate determination, H2SO4-carbazole method. Type of assay: cell-based, Pseudomonas aeruginosa. As to conditions: OD 530 nm. The procedure: as §2

≈ marks a conversion by molar mass, not a printed value. Peptide text beside a SMILES is read from it.

As usually defined, the MIC is the lowest concentration that inhibits growth of the organism.

`CC[C@H](C)[C@H](NC(=O)[C@H](CCCCN)NC(=O)[C@H](CO)NC(=O)[C@H](CC(C)C)NC(=O)[C@@H](NC(=O)[C@H](CCCCN)NC(=O)[C@H](CCCCN)NC(=O)[C@@H](N)Cc1c[nH]c2ccccc12)[C@@H](C)CC)C(=O)N[C@@H](CCCCN)C(=O)N[C@@H](CCCCN)C(=O)N[C@@H](CC(C)C)C(=O)N[C@@H](CC(C)C)C(=O)N[C@@H](CCCCN)C(N)=O` [I1W] (H-WKKILSKIKKLLK-NH2; N-terminus and C-terminus assumed): the “inhibition of rhamnolipid production” value in assay [1] worked out at 45.2%. In addition, the “decrease of LasB elastase activity” value in assay [2] turned out to be 21.0%. Moreover, in assay [3], the “reduction of pyocyanin production” value was 73.7%. For the same compound, the “reduction of exopolysaccharide production” value in assay [4] (peptide at 1/4 × MIC, overnight 37°C) is recorded as 26.3%; in assay [4] (peptide at 1 × MIC) it was 67.3%; in assay [4] (peptide concentration increased onefold from 1/4 × MIC) it was 42.6%. In addition, the MIC in assay [5] is 6.25 µM (≈ 10.2 µg/mL). Moreover, the “inhibition of alginate production” value was found to be 53% in assay [6] (peptide at 1/4 × MIC) and 74% in assay [6] (peptide at 1 × MIC).

These data come from publication PMC7906020, “Trp-Containing Antibacterial Peptides Impair Quorum Sensing and Biofilm Development in Multidrug-Resistant Pseudomonas aeruginosa and Exhibit Synergistic Effects With Antibiotics” (Frontiers in Microbiology, 2021).
